Data from patent US7078403B1, “Antiviral agents” (Biota Scientific Management Pty Ltd., priority 1999, dated 2006).

Assays:
HRV type 1A = assay: Inhibition of viral cytopathic effect (CPE), visual scoring or neutral red, HRV type 1A in MRC-5 cells; assay type: cell-based, human rhinovirus; conditions: for Activity on Rhinovirus Type 1A EC50: HRV type 1A in MRC-5 cells, CPE inhibition; for Activity on Rhinovirus Type 1A SI: selectivity index = CC50 or MTC divided by EC50, HRV type 1A, MRC-5 cells
[1] = system: human embryo lung (MRC-5) cells; assay: Cytotoxicity (CC50 or MTC) in uninfected MRC-5 cells; conditions: unit not given

Compound | Activity on Rhinovirus Type 1A EC50 (HRV type 1A) [µg/mL] | Activity on Rhinovirus Type 1A SI (HRV type 1A) | Activity on Rhinovirus Type 1A MTC [1]
C=CCON=Cc1ccc(OCC2CCN(c3ccc(Cl)nn3)CC2)cc1 [Compound 30] | 0.036 | >28 | >1
CON=Cc1cc(O)cc(OCCC2CCN(c3ccc(Cl)nn3)CC2)c1 [Compound 38] | 0.69 | >1.45 | >1
CCON=Cc1cccc(OCCC2CCN(c3ccc(C)nn3)CC2)c1 [Compound 46] | 0.062 | >16.0 | >1
C=CCON=Cc1cccc(OCCC2CCN(c3ccc(C)nn3)CC2)c1 [Compound 47] | 0.066 | >15 | >1
CON=Cc1cccc(OCCC2CCN(c3ccc(C)nn3)CC2)c1 [Compound 48] | 0.016 | >62 | >1
CCON=Cc1ccc(OCCC2CCN(c3cccnn3)CC2)cc1 [Compound 49] | 0.056 | >17.8 | >1
CCO/N=C/c1ccc(OCCC2CCN(c3ccc(Cl)nn3)CC2)cc1OC [Compound 50] | 0.008 | >121.7 | >1
C=CCON=Cc1ccc(OCCC2CCN(c3ccc(C)nn3)CC2)c(C)c1 [Compound 53] | <0.003 | >208 | 0.667
CCCON=Cc1ccc(OCCC2CCN(c3ccc(C)nn3)CC2)c(C)c1 [Compound 54] | 0.007 | 91 | 0.663
CCON=Cc1ccc(OC2CCN(c3ccc(Cl)nn3)CC2)cc1 [Compound 55] | 2.68 | >3 | >10
CCON=Cc1ccc(OCCC2CCN(c3ccc(-c4ccccc4)nn3)CC2)cc1 [Compound 56] | 2.31 | >3 | >10
CCON=Cc1ccc(OCCC2CCN(c3ccc(C(F)(F)F)nn3)CC2)cc1 [Compound 58] | 0.498 | >2 | >1
Cc1ccc(N2CCC(CCOc3ccc(C=NOCC(F)(F)F)cc3)CC2)nn1 [Compound 59] | 0.162 | 3.4 | 0.56
CON=Cc1cccc(OCC2CCN(c3ccc(Cl)nn3)CC2)c1 [Compound 60] | 0.183 | >17 | >1
CCON=Cc1cccc(OCC2CCN(c3ccc(Cl)nn3)CC2)c1 [Compound 61] | 0.058 | >14 | >1
C=CCON=Cc1cccc(OCC2CCN(c3ccc(Cl)nn3)CC2)c1 [Compound 62] | 0.067 | >14 | >1
C=CCON=Cc1ccc(OCCC2CCN(c3ccc(OC)nn3)CC2)cc1 [Compound 63] | 0.06 | >15 | >1
CCON=Cc1ccc(OCCN2CCN(c3cccnn3)CC2)cc1 [Compound 64] | 0.05 | >17 | >1
CCON=Cc1cccc(OCCN2CCN(c3cccnn3)CC2)c1 [Compound 65] | 0.21 | >4.5 | >1
C=CCON=Cc1ccc(OCCN2CCN(c3cccnn3)CC2)cc1 [Compound 66] | 0.05 | >18 | >1

Compound | Activity on Rhinovirus Type 1A EC50 (HRV type 1A) [µg/mL] | Activity on Rhinovirus Type 1A SI (HRV type 1A) | Activity on Rhinovirus Type 1A MTC [1]
CON=Cc1ccc(OCCN2CCN(c3ccc(C)nn3)CC2)cc1 [Compound 67] | 0.04 | >20 | >1
CCON=Cc1ccc(OCCN2CCN(c3ccc(C)nn3)CC2)cc1 [Compound 68] | 0.04 | >25 | >1
C=CCON=Cc1ccc(OCCN2CCN(c3ccc(C)nn3)CC2)cc1 [Compound 69] | 0.18 | >5 | >1
CON=Cc1cccc(OCCN2CCN(c3ccc(C)nn3)CC2)c1 [Compound 70] | 0.05 | >16 | >1
CCON=Cc1cccc(OCCN2CCN(c3ccc(C)nn3)CC2)c1 [Compound 71] | 0.05 | >18 | >1
C=CCON=Cc1cccc(OCCN2CCN(c3ccc(C)nn3)CC2)c1 [Compound 72] | 0.16 | >6 | >1
CON=Cc1ccc(OCCN2CCN(c3ccc(Cl)nn3)CC2)cc1 [Compound 73] | 0.003 | >312 | >1
C=CCON=Cc1ccc(OCCN2CCN(c3ccc(Cl)nn3)CC2)cc1 [Compound 74] | 0.02 | >46 | >1
CON=Cc1cccc(OCCN2CCN(c3ccc(Cl)nn3)CC2)c1 [Compound 75] | 0.01 | >98 | >1
CCON=Cc1cccc(OCCN2CCN(c3ccc(Cl)nn3)CC2)c1 [Compound 76] | 0.01 | >98 | >1
C=CCON=Cc1cccc(OCCN2CCN(c3ccc(Cl)nn3)CC2)c1 [Compound 77] | 0.003 | >279 | >1
CCON=Cc1ccc(OCCC2CCN(c3ccc(C(F)(F)F)cn3)CC2)cc1 [Compound 84] | 0.05 | >19.6 | >1
CCCON=Cc1ccc(OCCC2CCN(c3ccc(C)nn3)CC2)cc1 [Compound 85] | 0.08 | >12 | >1
C=CCON=Cc1ccc(OCCC2CCN(c3ccc(C)nn3)CC2)cc1 [Compound 87] | 0.01 | >51 | >1
C#CCON=Cc1ccc(OCCC2CCN(c3ccc(C)nn3)CC2)cc1 [Compound 88] | 0.005 | >172 | >1
CON=Cc1ccc(OCCCC2CCN(c3ccc(Cl)nn3)CC2)cc1 [Compound 89] | 0.005 | >174 | >1
CON=Cc1cccc(OCCCC2CCN(c3ccc(Cl)nn3)CC2)c1 [Compound 91] | 0.02 | >46 | >1
CCON=Cc1cccc(OCCCC2CCN(c3ccc(Cl)nn3)CC2)c1 [Compound 92] | 0.20 | >5 | >1
CON=Cc1ccc(OCCCC2CCN(c3ccc(C)nn3)CC2)cc1 [Compound 94] | 0.024 | >41 | >1
CCON=Cc1ccc(OCCCC2CCN(c3ccc(C)nn3)CC2)cc1 [Compound 95] | 0.30 | >3 | >1
